Data: patent US20050118601A1, “Enhancer sequence of the 5-aminolevulinic acid synthase gene” (priority 2002, published 2005)
Blank lines part the entries; values can stand above or below the molecule they belong to.

Columns and labels:
mCAR = biological target: T1, mCAR (Mus musculus, UniProt O35627); experiment: Transactivation assays of human ALAS1 fragments with mCAR in CV-1 and HepG2 cells; format: cell-based
T1 construct: expressed in transfected cells; host or cells: monkey kidney CV-1 cells and human hepatoma HepG2 cells
T1 sequence (O35627 1-358): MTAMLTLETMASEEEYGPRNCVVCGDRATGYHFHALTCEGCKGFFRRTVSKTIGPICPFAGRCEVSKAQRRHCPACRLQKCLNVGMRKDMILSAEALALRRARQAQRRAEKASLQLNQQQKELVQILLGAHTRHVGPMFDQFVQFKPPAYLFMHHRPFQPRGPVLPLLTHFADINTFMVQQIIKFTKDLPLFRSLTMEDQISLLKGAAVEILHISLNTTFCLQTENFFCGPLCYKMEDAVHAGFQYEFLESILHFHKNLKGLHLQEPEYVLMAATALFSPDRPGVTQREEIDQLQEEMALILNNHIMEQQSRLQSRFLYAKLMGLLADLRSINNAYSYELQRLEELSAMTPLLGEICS
Protocol: In transactivation assays in a heterologous cell line (monkey kidney CV-1 cells) and human hepatoma HepG2 cells, we assessed which nuclear receptor conveys the observed activation. The two candidate receptors pregnane X receptor (PXR) and constitutive androstane receptor (CAR) were tested on these fragments.

[1] = test system: chicken ALAS1 drug responsive enhancer sequence (ADRES) elements; experiment: Luciferase reporter gene assay of chicken ALAS1 5'-flanking fragments / ADRES elements in transfected LMH cells; format: cell-based; conditions: LMH cells, 16 h; PIA 250 μM, glutethimide 500 μM, metyrapone 400 μM, dexamethasone 50 μM, RU-486 10 μM, rifampicin 100 μM, TCPOBOP 10 μM; compared with PB 600 μM
Protocol: The constructs were transfected together with a transfection-control construct expressing β-galactosidase into LMH cells. Cells were then treated with 600 μM PB for 16 h and luciferase assays were performed on the cell extracts. Relative luciferase levels are standardized against cells transfected with vector containing no insert and expressed as fold induction. Experiments were repeated at least three times and data from a representative experiment tested in triplicate are shown here. Error bars represent standard deviations;
Three major subclones were generated from the region upstream of the transcriptional start site, including a 3282 bp SmaI fragment and 5056 bp and 7973 bp EcoRI segments (FIG. 1A). The SmaI clone extends from −167 bp to −3449 bp, whereas the EcoRI subfragments span the regions from −2347 bp to −7402 bp and −7403 bp to −15376 bp, respectively. These subfragments were cloned into the pLucMCS modified luciferase vector containing an SV40 promoter as described in Materials and Methods. Drug inducibility was measured in transiently transfected LMH cells treated with 600 μM PB and compared with control values. […]
The modified enhancers were examined for response to 600 μM PB in luciferase reporter gene assays and the results are presented in FIG. 3.
Leghorn Male Hepatoma (LMH) cells were obtained from the American Type Culture Collection and cultivated in 10 cm dishes in Williams E medium supplemented with 10% FCS, 1% glutamine (2 mM) and 1% penicillin/streptomycin (50 IU/ml). Dishes coated with 0.1% gelatin were used for routine culture of LMH cells in order to facilitate proper seating of the cells onto the plastic plate surface.

mouse 369 bp DRES = experiment: Luciferase reporter gene assay of mouse ALAS1 fragments / 369 bp DRES in LMH cells; format: cell-based; conditions: metyrapone 500 μM, glutethimide 500 μM, PIA 250 μM
Protocol: A 175 bp fragment (441 to 615) (Seq. Id. No. 3) was isolated by digesting the 2.6 kb fragment with SacI/XbaI. All fragments were subcloned in the pGL3LUCpro+MCS vector and the resulting constructs tested for inducibility in LMH reporter gene assay (FIG. 6). […] The 369 bp fragment was termed Drug responsive enhancer sequence DRES.
To compare the 369 bp DRES to other inducible fragments, a series of different drugs was used as inducers: clothrimazole (Clo, 10 μM), dexamethasone (Dex, 50 μM), glutethimide (GE, 500 μM), metyrapone (Met, 500 μM), phenobarbital (PB, 500 μM), PCN (10 μM), propylisopropylacetamide (PIA, 250 μM), rifampicin (Rif, 10 μM), RU486 (10 μM), TCPOBOP (10 μM).
Data shown is from two independent experiments.

[2] = test system: human ALAS1 gene fragments (hA795, hA174, hA8, hA240); experiment: Luciferase reporter gene assay of human ALAS1 fragments in LMH cells; format: cell-based; conditions: 24 h, 400 μM PB or 250 μM PIA
Protocol: Fragments were cloned into the pGL3 luciferase reporter vector (Promega Corp) and tested for inducibility by the prototypical HALAS1 inducers phenobarbital (PB) and propylisopropylacetamid (PIA). Four hours after transfection of LMH cells with the constructs, cells were exposed to the drugs for 24 hours, after which luciferase activity was assayed. Results were normalized for transfection efficiency by assaying for activity of co-transfected β-galactosidase. Data shown is one representative experiment (FIG. 11).
We investigated in more detail the contribution of various response element half-sites to drug-induction mediated by this element. Within the hA174 element, an arrangement of three nuclear receptor response element half-sites was found, which lead: to the prediction of a DR-4 type, as well as a DR-5 type response element (of. FIG. 18A). By site-directed mutagenesis, we examined the involvement of each of these half-sites to drug induction. In the context of the 2xhA174 reporter construct, each single half-site was mutated in both copies of the hA174 element. The wild-type and mutant constructs were subsequently tested for reporter gene activation in LMH cells as described above. Cells were induced with 400 μM phenobarbital (PB) or 250 μM propylisopropylacetamid (PIA). As a control, vehicle alone (0.1% DMSO) was added to the cells. After 24 hours, luciferase activity was assayed and normalized against co-transfected β-galactosidase activity in order to compensate for transfection efficiency. […] From this, we conclude that the DR-4 element, consisting of the HS1 and HS2 half-sites, is essential for drug induction. The change in induction observed by mutagenesis of the HS3 half-site may indicate a modulatory role for the half-site alone or as a DR-5 in combination with HS2 in drug induction. Data shown are the mean+1SD of three independent experiments.
In order to define a core sequence retaining inducibility, the hA8 fragment (Seq. Id. No. 10), which carries PCR-introduced KpnI and XhoI restriction sites at its ends, was digested with SacI and NsiI. The resulting four fragments, a 100 bp KpnI/SacI fragment, a 374 bp SacI/NsiI fragment, a 240 bp NsiI/NsiI fragment, and a 231 bp NsiI/XhoI fragment, were cloned into a reporter gene vector and subsequently tested for drug induction in LMH cells. Of these fragments, only the 240 bp fragment (called hA240) (Seq. Id. No. 39) was able to convey transcriptional activation in response to drugs. Within the core hA240 fragment, we then mutated both half-sites of a predicted DR-4 element (cf. FIG. 18B) and observed the effect of this mutation on drug induction (240mutDR4). Alteration of the DR4 element half-sites abolished drug induction in LMH cell reporter gene assays. […]

mouse CAR = biological target: T2, mouse CAR (Mus musculus, UniProt O35627); experiment: Transactivation of 369 bp ADRES by mouse CAR in CV-1 cells (CAT reporter); format: cell-based; conditions: TCPOBOP, 16 h
T2 construct: expressed in transfected cells; host or cells: CV-1 cells, pSG5 expression vector
T2 sequence (O35627 1-358): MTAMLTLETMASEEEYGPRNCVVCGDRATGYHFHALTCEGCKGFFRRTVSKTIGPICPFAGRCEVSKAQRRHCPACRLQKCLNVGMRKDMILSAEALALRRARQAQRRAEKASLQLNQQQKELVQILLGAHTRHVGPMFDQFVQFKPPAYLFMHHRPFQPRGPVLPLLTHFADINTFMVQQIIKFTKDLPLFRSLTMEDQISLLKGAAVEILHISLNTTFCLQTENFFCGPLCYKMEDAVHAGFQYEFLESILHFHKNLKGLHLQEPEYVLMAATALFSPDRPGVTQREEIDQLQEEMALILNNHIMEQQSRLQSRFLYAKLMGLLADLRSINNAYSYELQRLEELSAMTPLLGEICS
Protocol: To test the effects of the mutations on transcriptional activation, transactivations in CV-1 cells with mouse PXR and mouse CAR and their respective inducers PCN and TCPOBOP, were performed (FIG. 14). The inducible DNA constructs were subcloned into the CAT5 reporter vector and tested for their ability to be transactivated by nuclear receptor transcription factors in CV-1 cells. Mouse PXR (A) and mouse CAR (B) coding regions cloned into the pSG5 expression vector were cotransfected along with a vector expressing pSV β-galactosidase as control. Cells were then treated for 16 h with either drugs (A, PCN; B, TCPOBOP) or vehicle control and cell extracts were analyzed for CAT expression normalized against β-galactosidase levels. Experiments were repeated at least three times and error bars represent standard deviations.

ALAS1 mRNA = ALAS1 mRNA quantification (Taqman real-time PCR) in LMH cells; format: cell-based, chicken; conditions: LMH cells, 16 h; PB 600 μM, dexamethasone 50 μM, RU-486 10 μM, rifampicin 100 μM, TCPOBOP 10 μM
Protocol: We next wanted to compare ADRES-mediated ALAS1 induction levels from reporter gene assays with stimulation of transcription in a physiological system. […] In addition, the common CYP3A inducers dexamethasone (50 μM), metyrapone (400 μM), and 10 μM mifepristone (RU-486) were employed for comparison. We were also interested in the effects of […] 5-pregnen-3β-ol-20-one-16α-carbonitrile (PCN) and rifampicin (100 μM) due to their species-specific effects on PXR activation and CYP3A induction. Messenger RNA was reverse transcribed and levels of ALAS1 cDNA were quantified using the Taqman real-time PCR quantification system as described in Materials and Methods. […] This value was chosen to represent 100% induction, against which all other values are compared.
LMH cells were plated onto 12-well plates, expanded to 70-80% surface density and incubated in serum-free media for 24 h. Cells were then exposed to either drug or vehicle and RNA was isolated with Trizol reagent (Gibco BRL) according to the manufacturer protocol. One μg of total RNA was reverse transcribed with the Moloney murine leukemia virus reverse transcriptase kit (Roche Molecular Biochemicals). PCR was performed using the Taqman PCR core reagent kit (PE Applied Biosystems) and transcript levels quantitated with an ABI Prism 7700 sequence detection system (PE Applied Biosystems). Relative transcript levels were determined using the relative quantitation method measuring the ΔΔCt. The following primers and probes were used in these reactions. […] Transcript levels were measured in separate tubes and GAPDH values were used for normalization of ALAS1 values.

[3] = biological target: T3, human 9-cis retinoic acid receptor RXRα (human, UniProt P19793 1-462); experiment: electrophoretic mobility shift, hA240 probe; no complex with single receptors (FIG. 19B)
T3 construct: also called human RXRα
T3 sequence (looked up): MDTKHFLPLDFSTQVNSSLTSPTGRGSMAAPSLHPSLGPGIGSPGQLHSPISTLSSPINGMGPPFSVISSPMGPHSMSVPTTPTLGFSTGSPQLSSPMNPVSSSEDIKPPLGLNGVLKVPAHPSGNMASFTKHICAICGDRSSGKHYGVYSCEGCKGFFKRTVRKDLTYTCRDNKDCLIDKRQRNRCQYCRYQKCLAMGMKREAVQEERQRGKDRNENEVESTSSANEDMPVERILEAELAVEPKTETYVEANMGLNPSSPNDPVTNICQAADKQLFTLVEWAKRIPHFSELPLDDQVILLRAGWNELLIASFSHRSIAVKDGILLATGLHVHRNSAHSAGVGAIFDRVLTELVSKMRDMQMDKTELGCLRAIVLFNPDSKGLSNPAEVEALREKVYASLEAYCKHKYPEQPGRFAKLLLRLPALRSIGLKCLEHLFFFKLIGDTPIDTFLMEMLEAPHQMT
Excerpt: FIG. 19 depicts the results of an electrophoretic mobility shift assay, assaying the ability of human PXR and human CAR to bind to the hA174 and hA240 elements. Binding of these nuclear receptors happens in a heterodimeric state with the human 9-cis retinoic acid receptor RXRα. From expression plasmids encoding human RXRα, […] or CAR, receptor protein was made in vitro using the TNT reticulocyte lysate coupled transcription/translation system (Promega Corp.).
FIG. 19B: Instead of the hA174 fragment, wild-type or DR4-mutant hA240 fragment was radiolabeled and used as probe. Lanes 1-4: Wildtype hA240 was incubated with no receptor (mock transcription/translation) or with RXRα, PXR or CAR alone. No complex is observed using single receptors. Lanes 5 and 7: Wild-type hA240 was incubated with RXRα and PXR or RXRα and CAR, upon which complex formation between radiolabeled probe and protein is observed. Lanes 6 and 8: Same conditions as in lanes 5 and 7, but instead of wild-type probe, radiolabeled hA240DR4(2) mutant was used. No complex is formed.

Molecule: C[C@]12CC[C@@H](O)C[C@@H]1CC[C@@H]1[C@@H]2CC[C@]2(C)C=CC[C@@H]12 [3α-androstenol]
- mCAR induced activity remaining after repression (mCAR; human ALAS1 fragments hA795, hA8, hA174, inverse agonist): approximately 50%

Molecule: CCCC(C(N)=O)C(C)C (stereo not shown) [PIA, Propylisopropylacetamide]
- ADRES activation in reporter assays [1]: in excess of levels obtained from PB treatment
- induction of the 369 bp DRES, ranking of drugs (mouse 369 bp DRES): strongest inducer
- inducibility of 2xhA174, HS1 or HS2 half-site mutated [2]: abolishment of inducibility
- induction of 2xhA174, HS3 half-site altered [2]: merely reduces induction levels

Molecule: Clc1cnc(Oc2ccc(Oc3ncc(Cl)cc3Cl)cc2)c(Cl)c1 [TCPOBOP, 1,4-Bis[2-(3,5-dichloropyridyloxy)]benzene]
- induction capacity, DR4-1,2/hs1,2 quadruple mutant (mouse CAR): completely eliminated
- induction exceeding basal levels, DR4-2/hs1 construct (mouse CAR): 1.4 fold
- induction, DR4-2/hs2 construct or DR4-2 double mutant (mouse CAR): no induction was observed
- response, DR4-1 single and double mutants (mouse CAR): did not exhibit any response
- ADRES activation in reporter assays [1]: no response
- reversal of 3α-androstenol repression of mCAR induced activity (mCAR; human ALAS1 fragments, direct agonist): reversible
- effect on ALAS1 mRNA levels (ALAS1 mRNA): no response

- binding result [3]: binds
B1: human pregnane X receptor (PXR) (receptor, UniProt O75469 1-434, looked up)
chain: MEVRPKESWNHADFVHCEDTESVPGKPSVNADEEVGGPQICRVCGDKATGYHFNVMTCEGCKGFFRRAMKRNARLRCPFRKGACEITRKTRRQCQACRLRKCLESGMKKEMIMSDEAVEERRALIKRKKSERTGTQPLGVQGLTEEQRMMIRELMDAQMKTFDTTFSHFKNFRLPGVLSSGCELPESLQAPSREEAAKWSQVRKDLCSLKVSLQLRGEDGSVWNYKPPADSGGKEIFSLLPHMADMSTYMFKGIISFAKVISYFRDLPIEDQISLLKGAAFELCQLRFNTVFNAETGTWECGRLSYCLEDTAGGFQQLLLEPMLKFHYMLKKLQLHEEEYVLMQAISLFSPDRPGVLQHRVVDQLQEQFAITLKSYIECNRPQPAHRFLFLKIMAMLTELRSINAQHTQRLLRIQDIHPFATPLMQELFGITGS
notes: also called human PXR; hPXR
